Laboratory results taken from the supplement of paper PMC10307832.

Experiments:
Test in all cases: relative viability (nuclei count vs DMSO), 5 days (fraction); higher = more cells survive
Dabrafenib + Luminespib = compound: CC(C)(C)c1nc(-c2cccc(NS(=O)(=O)c3c(F)cccc3F)c2F)c(-c2ccnc(N)n2)s1 [Dabrafenib] + CCNC(=O)c1noc(-c2cc(C(C)C)c(O)cc2O)c1-c1ccc(CN2CCOCC2)cc1 [Luminespib] (partner 0.01 µM)
Method in brief: (§1)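 Relative viability is defined as nuclei in treated wells over nuclei in vehicle wells. Duplicate plates were run and medians reported. Lung cancer cell lines in 1536-well plates were dosed by pin tool one day after seeding, with one drug or with a fixed anchor-drug dose plus five library-drug doses (not always all listed) in √10 steps, and nuclei were counted after 5 days.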

Dabrafenib + Olaparib = compound: CC(C)(C)c1nc(-c2cccc(NS(=O)(=O)c3c(F)cccc3F)c2F)c(-c2ccnc(N)n2)s1 [Dabrafenib] + O=C(c1cc(Cc2n[nH]c(=O)c3ccccc23)ccc1F)N1CCN(C(=O)C2CC2)CC1 [Olaparib] (partner 8 µM)
Method in brief: as §1

VX-702 + Pictilisib = compound: NC(=O)c1ccc(N(C(N)=O)c2c(F)cccc2F)nc1-c1ccc(F)cc1F [VX-702] + CS(=O)(=O)N1CCN(Cc2cc3nc(-c4cccc5[nH]ncc45)nc(N4CCOCC4)c3s2)CC1 [Pictilisib] (partner 1 µM)
Method in brief: as §1

VX-702 + AZD7762 = compound: NC(=O)c1ccc(N(C(N)=O)c2c(F)cccc2F)nc1-c1ccc(F)cc1F [VX-702] + NC(=O)Nc1cc(-c2cccc(F)c2)sc1C(=O)N[C@H]1CCCNC1 [AZD7762] (partner 0.2 µM)
Method in brief: as §1

| Cell Line | relative viability (Dabrafenib + Luminespib; first compound 0.003 µM) | relative viability (Dabrafenib + Luminespib; first compound 0.009487 µM) | relative viability (Dabrafenib + Luminespib; first compound 0.03 µM) | relative viability (Dabrafenib + Luminespib; first compound 0.09487 µM) | relative viability (Dabrafenib + Luminespib; first compound 0.3 µM) | relative viability (Dabrafenib + Olaparib; first compound 0.003 µM) | relative viability (Dabrafenib + Olaparib; first compound 0.009487 µM) | relative viability (Dabrafenib + Olaparib; first compound 0.03 µM) | relative viability (Dabrafenib + Olaparib; first compound 0.09487 µM) | relative viability (Dabrafenib + Olaparib; first compound 0.3 µM) | relative viability (VX-702 + Pictilisib; first compound 0.02 µM) | relative viability (VX-702 + Pictilisib; first compound 0.2 µM) | relative viability (VX-702 + Pictilisib; first compound 0.6325 µM) | relative viability (VX-702 + Pictilisib; first compound 2 µM) | relative viability (VX-702 + AZD7762; first compound 0.02 µM) | relative viability (VX-702 + AZD7762; first compound 0.2 µM) | relative viability (VX-702 + AZD7762; first compound 0.6325 µM) | relative viability (VX-702 + AZD7762; first compound 2 µM) |
| --- | --- | --- | --- | --- | --- | --- | --- | --- | --- | --- | --- | --- | --- | --- | --- | --- | --- | --- |
| NCI-H1944 | 0.707 | 0.839 | 0.733 | 0.682 | 0.717 | 0.402 | 0.41 | 0.382 | 0.393 | 0.402 | 0.362 | 0.333 | 0.326 | 0.284 | 0.565 | 0.491 | 0.557 | 0.358 |
| LOU-NH91 | 0.262 | 0.36 | 0.28 | 0.343 | 0.294 |  | 0.923 | 0.918 | 0.889 | 0.969 | 0.545 | 0.489 | 0.491 | 0.53 | 0.766 | 0.753 | 0.721 | 0.695 |
| NCI-H1792 |  | 0.474 | 0.412 | 0.423 | 0.538 |  | 0.522 | 0.25 | 0.324 | 0.417 | 0.228 | 0.222 | 0.22 | 0.247 | 0.635 | 0.669 | 0.707 | 0.706 |
| HCC-15 | 0.379 | 0.634 | 0.285 | 0.0381 | 0.52 | 0.716 | 0.673 | 0.743 | 0.578 | 0.63 | 0.731 | 0.644 | 0.643 | 0.749 | 1.31 | 1.18 | 1.32 | 1.19 |
| NCI-H727 |  | 0.339 | 0.324 |  | 0.414 | 0.554 | 0.656 |  | 0.612 | 0.796 | 0.343 | 0.302 | 0.382 | 0.356 | 0.436 | 0.526 | 0.502 | 0.574 |
| EPLC-272H | 0.156 | 0.233 | 0.467 | 0.272 | 0.546 | 0.784 | 0.931 | 0.717 | 0.749 | 0.964 | 0.321 | 0.303 | 0.33 | 0.353 | 0.0171 | 0.202 | 0.234 | 0.211 |
| NCI-H1793 |  | 0.231 |  |  | 0.175 |  | 1.06 |  | 0.612 | 1.09 | 0.311 | 0.262 | 0.389 | 0.252 | 0.663 |  | 0.542 | 0.379 |
| LXF-289 | 0.651 | 0.73 | 0.675 | 0.589 | 0.752 | 1.1 | 1.12 | 1.07 | 0.892 | 1.07 | 0.85 | 0.785 | 0.818 | 0.784 | 1.15 | 1.14 | 1.15 | 1.16 |
| HARA | 0.83 | 0.818 |  | 0.621 | 0.726 |  | 0.971 | 0.799 | 0.647 | 1.12 | 0.361 | 0.412 | 0.325 | 0.332 | 0.313 |  | 0.306 | 0.331 |
| LCLC-97TM1 | 0.764 | 0.745 | 0.584 | 0.756 | 0.775 |  | 0.317 | 0.472 | 0.262 | 0.35 | 0.148 | 0.21 | 0.121 | 0.192 | 0.356 | 0.175 | 0.301 | 0.301 |
